Measurements reported in PubChem BioAssay (NCI).
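Grown in 96-well plates, cells were treated for 48 hours with each compound at five concentrations. Insufficient inhibition: endpoint recorded as highest concentration tested. GI50 is the concentration that inhibits growth by half. TGI: total growth inhibition.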

Tests used:
Test in all cases: NCI-60 cell line screen, 48 h
RXF 393 renal = test system: RXF 393 renal
SF-295 CNS = test system: SF-295 CNS
SN12C renal = test system: SN12C renal
IGROV1 ovarian = test system: IGROV1 ovarian
HL-60(TB) leukemia = test system: HL-60(TB) leukemia
CAKI-1 renal = test system: CAKI-1 renal
NCI/ADR-RES ovarian = test system: NCI/ADR-RES ovarian
DMS 273 small cell lung = test system: DMS 273 small cell lung
LOX IMVI melanoma = test system: LOX IMVI melanoma
KM12 colon = test system: KM12 colon
NCI-H522 lung = test system: NCI-H522 lung
OVCAR-4 ovarian = test system: OVCAR-4 ovarian
UO-31 renal = test system: UO-31 renal
MALME-3M melanoma = test system: MALME-3M melanoma
COLO 205 colon = test system: COLO 205 colon

Row | Compound | TGI (RXF 393 renal) [µM] | TGI (SF-295 CNS) [µM] | TGI (SN12C renal) [µM] | TGI (IGROV1 ovarian) [µM] | TGI (HL-60(TB) leukemia) [µM] | TGI (CAKI-1 renal) [µM] | TGI (NCI/ADR-RES ovarian) [µM] | TGI (DMS 273 small cell lung) [µM] | TGI (LOX IMVI melanoma) [µM] | TGI (KM12 colon) [µM] | TGI (NCI-H522 lung) [µM] | TGI (OVCAR-4 ovarian) [µM] | TGI (UO-31 renal) [µM] | TGI (MALME-3M melanoma) [µM] | TGI (COLO 205 colon) [µM] | GI50 (IGROV1 ovarian) [µM] | GI50 (HL-60(TB) leukemia) [µM] | GI50 (NCI-H522 lung) [µM] | GI50 (UO-31 renal) [µM] | GI50 (COLO 205 colon) [µM]
1 | O=C(O)C(Cc1cccs1)NC(=O)C(F)(F)F (configuration not stated) | > 100 | > 100 | > 100 | > 100 | > 100 | > 100 | > 100 | > 100 | > 100 | > 100 | > 100 | > 100 | > 100 | > 100 | > 100 |  |  |  |  | 
2 | CC(N)Cc1cccc(C(F)(F)F)c1 (configuration not stated) | > 100 | > 100 | > 100 | > 100 | > 100 | > 100 |  | > 100 | > 100 | > 100 | > 100 | > 100 | > 100 | > 100 | > 100 |  |  |  |  | 
3 | COC(=O)c1cccc(NC(=O)Nc2ccc3oc(=O)c4ccccc4c3c2)c1 |  |  |  | > 100 | > 100 |  |  |  |  |  | > 100 |  | > 100 |  | > 100 | > 100 | 46.5 | 4.91 | > 100 | > 100
4 | CN(C)CCOc1cc2c(c3ccccc13)-c1ccccc1C2=O | 5.3 | 4.42 | 7.43 | 7.35 | 2.7 | 6.31 | 2.64 | 1.85 | 2.53 | 3.03 | 3.08 | 2.68 | 3.15 | 5.15 | 3.68 |  |  |  |  | 
5 | CCSC(=Nc1ccccc1)SC | > 100 | > 100 | > 100 | > 100 | > 100 | > 100 |  | > 100 | > 100 | > 100 | > 100 | > 100 | > 100 | > 100 | > 100 |  |  |  |  | 
6 | CCCCOC(=O)CN1C(=O)c2ccccc2C1=O | > 100 | > 100 |  | > 100 | > 100 | > 100 |  | > 100 | > 100 | > 100 | > 100 | > 100 | > 100 | > 100 | > 100 |  |  |  |  | 
7 | C#CCCCC(=C)C[C@H](OCc1ccccc1)[C@H]1OC(=O)[C@@H]1C | > 100 | > 100 | > 100 |  | > 100 | 46.5 | > 100 |  |  | > 100 |  | > 100 | 58.8 |  |  |  |  |  |  | 
8 | O=C(CCl)N1CCCCC1C1(c2cc3ccccc3[nH]2)OCCO1 (configuration not stated) | 12.8 | 11.5 | 9.85 | 0.558 | > 100 | 1.86 | 14.6 |  | 0.141 | 8.48 | 0.448 | 9.28 | 11.3 | 14.5 | 12.1 |  |  |  |  | 
9 | COc1cc(CC2CCc3nc(N)nc(N)c3C2)cc(OC)c1OC (configuration not stated) | 11.9 | > 51.3 | > 100 | 98.2 |  |  |  |  | > 43.1 | > 100 | 17 | > 100 | > 71.5 | 28.4 | 21.6 |  |  |  |  | 
10 | CO/C(=N/N1CC1C(F)(F)F)c1ccncc1 (configuration not stated) | > 100 | > 100 | > 100 | > 100 | > 100 | > 100 | > 100 |  |  | > 100 | > 100 | > 100 | > 100 | > 100 | > 100 |  |  |  |  | 
11 | NC(=O)/N=C(\N)NC(=O)c1ccccc1 | > 100 | > 100 | > 100 | > 100 | > 100 | > 100 | > 100 |  | > 100 | > 100 | > 100 |  | > 100 | > 100 |  |  |  |  |  | 
12 | N#CN=Nc1cc(Cl)c(N=NC#N)cc1Cl | > 100 | > 100 | > 100 | > 100 | > 100 |  |  | > 100 | > 100 | > 100 | > 100 | > 100 |  | > 100 | > 100 |  |  |  |  | 
